Laboratory results: patent US11491105B2, “Methods of treating microbial infections, including mastitis” (priority 2013, dated 2022)
In brackets after ≈: the same amount, converted by molar mass.

Experiments:
[1] = humans; cited from earlier work
[2] = dogs; cited from earlier work
bovine mastitis isolates = test: Minimum inhibitory concentration assay (Example 3); assay type: cell-based
Source text: Fifty-one dairy bovine mastitis isolates, encompassing a variety of bacterial species, were isolated from milk samples collected from dairy farms in rural South Australia by the University of Adelaide Ambulatory Clinic. Cellular morphology observed from Gram stains and catalase testing was used to differentiate Staphylococcus, Streptococcus and Corynebacterium species from Gram-negative species. Further biochemical testing including coagulase, Lancefield grouping, esculin hydrolysis and CAMP tests were used to identify the isolates to species level. Where biochemical test results were not definitive in identifying species, amplification and sequencing of the 16S ribosomal RNA gene was used to confirm the identity of the isolates.
Minimum inhibitory concentration tests were performed in the manner outlined by the CLSI (CLSI 2012). Test compounds were dispensed into a 96-well microtitre tray containing 90 μl of CAMHB in 90 μl volumes and serial diluted to obtain a concentration gradient ranging from 128 μg/ml to 0.25 μg/ml (see FIG. 24). For Streptococcus species, CAMHB was replaced with a CAMHB supplement with 4% lysed-sheep blood (4% LSB:CAMHB). 4% LSB:CAMHB was prepared by mixing 5 ml sheep blood to 5 ml milliQ water, and repeated freezing at −20° C. and thawing, followed by centrifuged for 20 min at 7000 rpm. 7 ml of the supernatant was removed and added to 93 mL of CAMB.
Bacterial suspensions were prepared by emulsifying fresh colonies obtained from an overnight culture on Sheep Blood Agar (SBA) in 4 mls of 9.1 g/l physiological saline to an optical density read at 600 nm (OD600nm) between 1.00 and 1.20. Standardised bacterial suspensions were diluted 1:10 in physiological saline and dispensed into all wells, excluding the negative control wells, in 10 μL volumes giving a final concentration of between 4×10^5 and 5×10^5 CFU/mL in each well. 96-well microtitre trays were incubated for 24 hours at 37° C. in 5% CO2 and then assessed both visually and using OD readings from a microplate reader at a wavelength of 600 nm. These tests were performed in duplicate and repeated if discrepancies in MIC values were observed between replicates.
The minimum inhibitory concentration (MIC) was determined to be the lowest concentration of antibiotic that prevented growth of bacteria both visually and using OD readings. MIC values were collated and used to determine the lowest concentration of each compound effective against 50% and 90% of isolates, known as the MIC50 and MIC90 respectively. These values as well as the range of MIC values were then used for direct comparisons between test compounds and for general comparisons with ampicillin.

[3] = accidental inhalation and swallowing of about 1 mg/kg, human; cited from earlier work
[4] = system: Staphylococcus isolates (methicillin-sensitive and methicillin-resistant); test: Minimum bactericidal concentration determination (Example 1); assay type: cell-based; conditions: for bactericidal activity (MBC testing): methicillin-sensitive and methicillin-resistant strains
Protocol: Following determination of the MIC using the 96 well MIC plate, a variation of the drop plate method was used to determine minimum bactericidal concentration (MBC) for each of the test compounds. These were analysed using samples taken from the MIC plate following incubation. For each compound, a 10 μL drop of each concentration equal to or higher than the MIC was pipetted onto Sheep Blood Agar in a clockwise manner (FIG. 3). Each concentration was pipetted in duplicate with duplicates being pipetted on an inner ring of drops. The plates were incubated at 37° C. overnight and assessed the following day for growth. The MBC was defined as the concentration at which 99.9% of colonies were eradicated, which was visually assessed by a lack of growth on the agar where the drop was placed. […] The MBC values for 50% and 90% of the isolates (MBC50 and MBC90) were calculated and assessed along with the MBC range in order to select compounds for further study.

[5] = system: Staphylococcus isolates (methicillin-sensitive and methicillin-resistant); test: Minimum inhibitory concentration assay (Example 1); assay type: cell-based; conditions: for MIC50 and MIC90 values compared with ampicillin: methicillin-resistant isolates
Protocol: Forty-two isolates of Staphylococcus of varying species and strain type were collected from isolate collections. Biochemical testing including coagulase, latex agglutination testing for protein A, Vogues-Proskauer tests and resistance to polymyxin B were used to identify the species of Staphylococcus. All isolates were also screened for resistance to various antimicrobials commonly used for the treatment of infections. This was performed using the disk diffusion method and resistance standards as outlined by the CLSI. The following antimicrobials were used: amoxicillin-clavulanic acid (30 μg), cephalothin (30 μg), clindamycin (2 μg), enrofloxacin (5 μg), erythromycin (15 μg), gentamicin (10 μg), imipenem (10 μg), oxacillin (1 μg), penicillin G (10 units), tetracycline (30 μg), 1:19 trimethoprim-sulfamethoxazole (25 μg) and vancomycin (30 μg).
Minimum inhibitory concentration tests were performed according to CLSI Standards (CLSI 2012). 90 μL of one of the test compound solutions, or ampicillin, was added to the end column of a 96 well plate that contained 90 μL of CAMHB in each well. The solutions were then serially diluted across the row, leaving 2 columns for positive and negative controls (FIG. 2). A bacterial suspension was prepared by adding fresh colonies obtained from an overnight culture on Sheep Blood Agar (SBA) to a 9.1 g/L saline solution. This suspension was adjusted to a concentration of between 4×10^8 and 5×10^8 CFU/mL. Concentration of the suspension was determined by measuring optical density (OD) using a spectrophotometer at a wavelength of 600 nm where the correct concentration was determined to have an optical density of between 1.00 and 1.20. 1 mL of this suspension was added to 9 mL of saline before being added to all wells, excluding the negative control wells, in 10 μL volumes giving a final concentration of between 4×10^5 and 5×10^5 CFU/mL in each well. The tests were then incubated for 24 hours at 37° C. and then assessed both visually and using OD readings from a microplate reader at a wavelength of 600 nm. These tests were performed in duplicate but repeated if discrepancies were observed.
The minimum inhibitory concentration (MIC) was determined to be the lowest concentration of antibiotic that prevented growth of bacteria both visually and using OD readings. Direct statistical comparisons between the test compounds and ampicillin could not be performed in light of confidential information restrictions, such as restrictions on disclosure of information relating to the compound structure, such as molecular weight. Instead, MIC values were collated and used to determine the lowest concentration of each compound that was effective against 50% and 90% of isolates, referred to as the MIC50 and MIC90 respectively. These values as well as the range of MIC values were then used for direct comparisons between test compounds and for general comparisons with ampicillin.

[6] = Dilution in Cation Adjusted Mueller Hinton Broth; assay type: physicochemical
Protocol: For each of the five test compounds, a […] stock solution was created by dissolving 2.56 grams of compound in 10 ml of dimethyl sulfoxide (DMSO). The resulting solution was then aliquoted into 500 μL volumes and stored at −80° C. A […] stock solution of ampicillin was also created by dissolving 0.303 grams of ampicillin (Sigma A-0166) in 10 ml of DMSO. This solution was aliquoted and stored in the same manner as the five test compounds. When these compounds were required, a 256 μg/ml working solution was created by diluting 100 μl of stock solution (25.6 mg/ml) in 9.9 ml of Cation-Adjusted Mueller Hinton Broth (CAMHB)
LP4525 had the most consistent MIC values for all isolates, and this is evidenced by the small MIC range. LP4525 also has a lower MIC90 value compared to all compounds.

[7] = system: ATCC 49775 reference strain; test: Macrodilution time-kill assay; assay type: cell-based, Staphylococcus; conditions: 24 hours
Protocol: (§1) Due to the detection limit of the OD measurements, the time-kill assays were also performed in macrodilution. In 15 mL tubes, 9 mL volumes of the test compounds in CAMHB were prepared at one, four and eight times the MIC concentration and 9 mL volumes of ampicillin were prepared in CAMHB at one and four times the MIC. 1 mL of a 4 to 5×10^6 bacterial suspension (as prepared for MIC testing) was added to each of the tubes as well as a growth control tube containing only 9 mL of CAMHB. These tubes were incubated at 37° C. in an orbital shaker rotating at 100 rpm for 24 hours. At 0, 1, 4, 8, 12 and 24 hours after addition of the bacteria, 100 μL samples were removed from each tube and serial diluted in 9.1 g/L saline solution. The dilutions were then plated in duplicate onto plate count agar and incubated for 24 hours at 37° C. After incubation, viable counts were obtained from the number of colonies visible on the agar and these were used to calculate the number of CFU/mL at each time point. For the macrodilution time-kill analysis, only the ATCC 49775 reference strain and MRSA 9 were assessed in order to further investigate the antibacterial activity against methicillin-resistant strains. These macrodilution time-kill assays were independently repeated and bactericidal activity was defined as a ≥3 log decrease in the number of CFU/mL.

MRSA 9 [8] = test: Microdilution time-kill assay; assay type: cell-based, Staphylococcus aureus; conditions: 48 hours
Protocol: Following assessment of MIC and MBC results, two compounds were chosen for analysis using microdilution time-kill assays, LP 1369 and LP 6315 and these were compared to ampicillin. Time-kill assays were performed according to the M26-A guidelines of the CLSI, with modifications. The test compounds and ampicillin were serial diluted in CAMHB across the rows of a 96 well plate and a bacterial suspension was prepared and added in the same manner as the MIC testing. […] The time points assessed were 0, 1, 2, 4, 8, 12, 24 and 48 hours after the addition of the bacterial suspension to the wells. Each test compound was tested in triplicate while ampicillin was tested in duplicate and this test was independently repeated. The bacterial strains used for the microdilution assays were chosen based on bactericidal activity evident during MBC testing. One strain from each of the categories of Staphylococcus in the isolate collection (methicillin-sensitive, methicillin resistant and coagulase negative) were selected as well as the ATCC reference strain for comparison. These strains were strains MSS 1, MSS 11, MRSA 9 and the ATCC 49775 reference strain.

MRSA 9 [9] = test: Macrodilution time-kill assay; assay type: cell-based, Staphylococcus aureus; conditions: 24 hours
Protocol: as §1

[10] = 51 Australian bovine mastitis isolates

| Compound | acceptable daily intake (ADI) [1] [µg/kg] | daily intake that leads to neurotoxic effects (myelin loss, axonal degeneration) [2] | MIC values (in words) (bovine mastitis isolates) | antibacterial activity against the bovine mastitis isolates (bovine mastitis isolates) | MIC90 (bovine mastitis isolates; [10]) [µg/mL] | toxicity after accidental exposure [3] | strains against which bactericidal activity was exhibited more consistently [4] | bactericidal activity (MBC testing) [4] | MIC50 and MIC90 values compared with ampicillin [5] | MIC90 values for each of the groups of mastitis pathogens (in words) (bovine mastitis isolates; compared with the other compounds) | turbidity or precipitate upon dilution [6] | MIC90 value and MIC range (in words) ([5]; all strains) | bactericidal or bacteriostatic (>=3 log decrease in CFU/mL = bactericidal) ([7]; LP 6315: most concentrations) | decrease in the number of viable bacteria ([7]; all concentrations tested) [log10] | resulting growth after 48 hours (MRSA 9 [8]) | bactericidal or bacteriostatic (>=3 log decrease in CFU/mL = bactericidal) (MRSA 9 [9]; LP 6315: most concentrations) | decrease in the number of viable bacteria (MRSA 9 [9]; all concentrations tested) [log10] | MIC50 (bovine mastitis isolates; [10]) [µg/mL] |
| --- | --- | --- | --- | --- | --- | --- | --- | --- | --- | --- | --- | --- | --- | --- | --- | --- | --- | --- |
| CC[C@@H](C(=O)[C@@H](C)[C@@H](O)[C@H](C)[C@@H]1O[C@@H]([C@@H](CC)C(=O)O)CC[C@@H]1C)[C@H]1O[C@]2(C=C[C@@H](O)[C@]3(CC[C@@](C)([C@H]4CC[C@](O)(CC)[C@H](C)O4)O3)O2)[C@H](C)C[C@@H]1C [LP 1088, Salinomycin] | 5 | more than 500 μg/kg | low MIC values | observed | 2 (≈ 2.66 µM) | severe acute and chronic salinomycin toxicity | methicillin-sensitive strains | some bactericidal activity in lower concentrations | considerably lower than ampicillin | – | – | – | – | – | – | – | – | – |
| CC[C@@]1([C@@H]2O[C@@H]([C@H]3O[C@@](O)(CO)[C@H](C)C[C@@H]3C)C[C@@H]2C)CC[C@H]([C@]2(C)CC[C@]3(C[C@H](O)[C@@H](C)[C@@H]([C@@H](C)[C@@H](OC)[C@H](C)C(=O)O)O3)O2)O1 [LP 9666, Monensin] | – | – | – | observed | 128 (≈ 191 µM) | – | – | – | considerably lower than ampicillin | significantly higher | large amount of precipitate | high MIC90 value and broad MIC range | – | – | – | – | – | – |
| CC1(C)S[C@@H]2[C@H](NC(=O)[C@H](N)c3ccccc3)C(=O)N2[C@H]1C(=O)O [ampicillin] | – | – | – | – | – | – | – | – | – | – | – | – | bactericidal | > 3 | comparable to the growth control | bactericidal | > 3 | – |
| Narasin [LP 4525] | – | – | low MIC values | observed | 1 | – | methicillin-sensitive strains | some bactericidal activity in lower concentrations | considerably lower than ampicillin | – | – | – | – | – | – | – | – | 0.25 |
